The conditions of this series: mouse, in vivo. The source says: Mice (Mus musculus) were bred in the Netherlands Cancer Institute and housed and handled according to institutional guidelines complying with Dutch and EU legislation. Animals used were WT, Abcb1a/1b^-/- [39], Abcg2^-/- [40], Abcb1a/1b;Abcg2^-/- [41], Cyp3a^-/- [42], and Oatp1a/1b^-/- [43] mice of a >99% FVB/N strain background. Homozygous CYP3A4 humanized transgenic mice (Cyp3aXAV) were generated by cross-breeding of transgenic mice with stable human CYP3A4 expression in the liver or intestine, respectively, in a Cyp3a^-/- background. Proper functionality of the knockout and transgenic strains was monitored by regular testing with a variety of drug substrates. All the mice used were between 10 and 15 weeks of age. Animals were kept in a temperature-controlled environment with a 12 h light/12 h dark cycle and received a standard diet (Transbreed, SDS Diets, Technilab-BMI, The Netherlands) and acidified water ad libitum. Depending on the type of experiment, 5 or 6 mice were tested in each experimental group. All experimental animal protocols, including power calculations, were ethically assessed and designed under the nationally approved DEC/CCD project AVD301002016595 (approval date, 10 August 2016) and evaluated and approved by the institutional animal care and use committee (IACUC) of the Netherlands Cancer Institute.
EAI045 was dissolved in dimethyl sulfoxide (DMSO) at a concentration of […], and then diluted with a mixture of polysorbate 80/ethanol (1:1, v/v), and further diluted with 5% (w/v) glucose in water to yield a concentration of 2 mg/mL. Final concentrations for DMSO, polysorbate 80, ethanol, and glucose in the dosing solution were 5%, 2.5%, 2.5%, and 4.5% (v/v/v/w), respectively. Elacridar hydrochloride was dissolved in DMSO at a concentration of 53 mg/mL, then diluted with a mixture of polysorbate 80, ethanol, and water [20:13:67, (v/v/v)] to yield a concentration of 5 mg/mL elacridar. The final oral dose of elacridar was 50 mg/kg body weight. All dosing solutions were prepared freshly on the day of experiment.
To minimize variation in absorption, mice were fasted for about 3 h before EAI045 was administered by gavage into the stomach (n = 5–6), using a blunt-ended needle. EAI045 was administered orally at dose of 20 mg/kg. Elacridar was administered orally at a dose of 50 mg/kg, 3 h prior to oral EAI045 administration. For the 24- or 4-h experiments, tail vein blood samplings were performed at 5 min, 30 min, 1, 2, 4, and 8 h, or 5 min, 15 min, 30 min, 1, and 2 h time points after oral administration of EAI045, respectively, using microvettes containing heparin. For the 30 min experiments, blood samplings were performed at 5, 10, and 20 min from the tail vein. At the last time point (24 h, 4 h, or 30 min), mice were anesthetized with isoflurane and blood was collected by cardiac puncture. Then, mice were sacrificed by cervical dislocation and brain, liver, spleen, kidneys, lung, small intestine with content (SIWC), and testis were rapidly removed and weighed. Tissues were homogenized on ice in appropriate volumes of 2% (w/v) BSA. Blood samples were centrifuged at 9000× g for 6 min at 4 °C immediately after collection. All samples were stored at −30 °C until analysis.

`O=C(Nc1nccs1)C(c1cc(F)ccc1O)N1Cc2ccccc2C1=O` (centres unmarked) [EAI045]: the “kidney-to-plasma ratio, fold change” value came to 1.6 fold. Besides, the “systemic exposure of EAI045” value (po, 20 mg/kg) is listed as “not changed”.
